From patent US20240398768A1, “METHODS OF TREATING SOLID TUMOR USING HETEROAROMATIC MACROCYCLIC ETHER COMPOUNDS” (Nuvalent, Inc., priority 2021, published 2024)

Test system: NIH3T3 cells expressing ROS1 fusions with G2032R
Test: Anchorage-independent colony formation assay
Assay type: cell-based
Conditions: at 100 nM
Procedure: Each inhibitor was paired with its own DMSO condition to serve as an accurate control. NIH3T3 cells expressing CD74-ROS1 or EZR-ROS1 wild-type or mutant fusions were plated in 0.4% agarose in complete medium at a density of 2,000 cells per 0.5 mL of agarose with DMSO or inhibitor at identical concentration to the bottom layer. Plates were incubated for 4 weeks, and each well was fed 3× per week with 75 μL of complete medium with or without inhibitor to match each plated condition to prevent drying of the agarose. Plates were read after 3 and 4 weeks using a GelCount™ (Oxford Optronix). Colony counts were averaged by condition and normalized to the colony counts from paired DMSO conditions. Data analysis and visualization was performed using Microsoft Excel and GraphPad Prism.

Compound: CN1CCN(c2ccc(C(=O)Nc3n[nH]c4ccc(Cc5cc(F)cc(F)c5)cc34)c(NC3CCOCC3)c2)CC1 [Entrectinib, reference compound]
- inhibition of colony formation: weaker effects
